The record followed here is patent US10450301B2, “Apoptosis signal-regulating kinase 1 inhibitors and methods of use thereof” (ENANTA PHARMACEUTICALS, INC., priority 2017, dated 2019).

A value given as a limit tells only on which side of the number the result lay.

The target in this assay is ASK1 (Homo sapiens (Human), UniProt Q99683). Kind of assay: HTRF KinEASE Assay (TR-FRET, STK3 peptide substrate), inhibition of ASK1. The class given is biochemical. The conditions noted are these: 5 nM ASK1 kinase, 1 μM STK3 peptide substrate, 100 μM ATP, 3 hours; compound 0 to 10 μM. The essentials:
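TR-FRET HTRF KinEASE-STK format with an STK3 biotinylated peptide substrate. Signal tracks phosphorylation; IC50 from curve fitting.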
Background: TR-FRET usually uses a lanthanide donor and a delayed reading to cut background.

Sequence of ASK1 (Q99683 whole entry): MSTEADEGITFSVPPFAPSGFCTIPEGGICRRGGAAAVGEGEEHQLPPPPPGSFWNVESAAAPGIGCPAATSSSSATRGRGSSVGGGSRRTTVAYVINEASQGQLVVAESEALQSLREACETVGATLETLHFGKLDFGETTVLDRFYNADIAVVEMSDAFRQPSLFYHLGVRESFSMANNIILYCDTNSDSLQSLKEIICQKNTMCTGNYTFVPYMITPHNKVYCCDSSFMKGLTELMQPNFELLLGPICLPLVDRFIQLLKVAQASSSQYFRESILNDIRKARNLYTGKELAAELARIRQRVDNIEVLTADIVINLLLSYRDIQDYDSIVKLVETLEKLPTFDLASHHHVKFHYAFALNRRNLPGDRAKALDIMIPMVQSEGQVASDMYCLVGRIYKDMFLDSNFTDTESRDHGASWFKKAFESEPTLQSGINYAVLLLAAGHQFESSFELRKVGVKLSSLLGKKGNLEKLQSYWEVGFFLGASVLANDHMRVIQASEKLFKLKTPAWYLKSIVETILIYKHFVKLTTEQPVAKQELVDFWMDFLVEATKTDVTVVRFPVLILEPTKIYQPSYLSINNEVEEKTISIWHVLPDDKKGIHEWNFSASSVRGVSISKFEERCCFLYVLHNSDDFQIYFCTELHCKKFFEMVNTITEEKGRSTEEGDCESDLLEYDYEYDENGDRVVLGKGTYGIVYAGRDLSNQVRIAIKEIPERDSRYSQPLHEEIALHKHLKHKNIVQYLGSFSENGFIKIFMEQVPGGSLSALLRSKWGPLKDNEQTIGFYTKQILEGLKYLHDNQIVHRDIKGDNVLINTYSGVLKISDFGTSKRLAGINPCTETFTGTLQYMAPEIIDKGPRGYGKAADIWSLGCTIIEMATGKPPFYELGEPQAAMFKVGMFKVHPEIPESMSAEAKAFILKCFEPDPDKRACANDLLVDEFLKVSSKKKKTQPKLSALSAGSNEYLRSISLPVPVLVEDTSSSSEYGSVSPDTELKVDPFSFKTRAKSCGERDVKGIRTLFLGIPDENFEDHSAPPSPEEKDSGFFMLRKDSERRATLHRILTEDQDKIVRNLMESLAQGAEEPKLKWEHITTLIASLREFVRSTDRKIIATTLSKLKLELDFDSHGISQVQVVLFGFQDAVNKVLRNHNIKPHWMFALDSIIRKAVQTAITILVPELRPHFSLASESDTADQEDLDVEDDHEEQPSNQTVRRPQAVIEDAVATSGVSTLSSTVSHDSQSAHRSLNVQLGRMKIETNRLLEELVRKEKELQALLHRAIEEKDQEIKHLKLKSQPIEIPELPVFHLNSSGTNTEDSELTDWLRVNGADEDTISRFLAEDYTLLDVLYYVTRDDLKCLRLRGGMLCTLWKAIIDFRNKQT

The IC50 is the concentration needed to halve the response being measured. As for `CC(C)n1nnnc1-c1cccc(NC(=O)c2cc3c(cn2)CCN(C(=O)N(C)C2CCCC2)C3)n1` [Example 112], the IC50 lay within 10 to 100 nM.

For `CCN(CC)C(=O)N1CCc2cnc(C(=O)Nc3cccc(-c4nnnn4C(C)C)n3)cc2C1` [Example 113], the IC50 fell in the range of 1 to 10 nM.

As to `CC(C)n1nnnc1-c1cccc(NC(=O)c2cc3c(cn2)CCN(C(=O)N(C)CCC(F)(F)F)C3)n1` [Example 114], the IC50 is 10 to 100 nM.

`CCN(C)C(=O)N1CCc2cnc(C(=O)Nc3cccc(-c4nnnn4C(C)C)n3)cc2C1` [Example 115] came in with an IC50 of 1 to 10 nM.

Compound `CC(C)n1nnnc1-c1cccc(NC(=O)c2cc3c(cn2)CCN(C(=O)N(C)C)C3)n1` [Example 116] returned an IC50 of 1 to 10 nM.

Compound `CCNC(=O)N1CCc2cnc(C(=O)Nc3cccc(-c4nnnn4C(C)C)n3)cc2C1` [Example 117] had an IC50 of 1 to 10 nM.

Regarding `CCOC(=O)N1CCc2cnc(C(=O)Nc3cccc(-c4nnnn4C(C)C)n3)cc2C1` [Example 118], the IC50 lay within 1 to 10 nM.

With `CC(C)n1nnnc1-c1cccc(NC(=O)c2cc3c(cn2)CCN(C(=O)C2CCCC2)C3)n1` [Example 119], the IC50 lay in the range of 1 to 10 nM.

The compound `C[C@H](CO)n1nnnc1-c1cccc(NC(=O)c2cc3c(cn2)CCN(S(=O)(=O)c2ccccc2)C3)n1` [Example 120] gave an IC50 of 1 to 10 nM.

Turning to `C[C@H](CO)n1nnnc1-c1cccc(NC(=O)c2cc3c(cn2)CCN(C(=O)c2ccc(F)cc2)C3)n1` [Example 121], the IC50 was 1 to 10 nM.

The compound `COCCC(=O)N1CCc2cnc(C(=O)Nc3cccc(-c4nnnn4[C@H](C)CO)n3)cc2C1` [Example 122] showed a 50% inhibitory concentration (IC50) of 1 to 10 nM.

Consider `C[C@H](CO)n1nnnc1-c1cccc(NC(=O)c2cc3c(cn2)CCN(C(=O)CCC(F)(F)F)C3)n1` [Example 123], for which the IC50 lay in the range of 1 to 10 nM.

Take `C[C@H](CO)n1nnnc1-c1cccc(NC(=O)c2cc3c(cn2)CCN(C(=O)C2CCC2)C3)n1` [Example 124]: the IC50 fell in the range of 1 to 10 nM.

Regarding `CCC(=O)N1CCc2cnc(C(=O)Nc3cccc(-c4nnnn4[C@H](C)CO)n3)cc2C1` [Example 125], the IC50 lay in the range of 1 to 10 nM.

Compound `C[C@H](CO)n1nnnc1-c1cccc(NC(=O)c2cc3c(cn2)CCN(C(=O)OCC(F)(F)F)C3)n1` [Example 126] registered a half-maximal inhibitory concentration (IC50) of under 1 nM.

Take `CC(C)COC(=O)N1CCc2cnc(C(=O)Nc3cccc(-c4nnnn4[C@H](C)CO)n3)cc2C1` [Example 127]: the IC50 was in the range of 1 to 10 nM.

In turn, `COC(=O)N1CCc2cnc(C(=O)Nc3cccc(-c4nnnn4[C@H](C)CO)n3)cc2C1` [Example 128] returned an IC50 of 1 to 10 nM.

For the compound `C[C@H](CO)n1nnnc1-c1cccc(NC(=O)c2cc3c(cn2)CCN(C(=O)NCc2ccccc2)C3)n1` [Example 129], the IC50 fell in the range of 1 to 10 nM.

With `COCCNC(=O)N1CCc2cnc(C(=O)Nc3cccc(-c4nnnn4[C@H](C)CO)n3)cc2C1` [Example 130], the IC50 lay within 1 to 10 nM.

Compound `C[C@H](CO)n1nnnc1-c1cccc(NC(=O)c2cc3c(cn2)CCN(C(=O)NC2CC2)C3)n1` [Example 131] yielded an IC50 of 1 to 10 nM.

The compound `CC(C)NC(=O)N1CCc2cnc(C(=O)Nc3cccc(-c4nnnn4[C@H](C)CO)n3)cc2C1` [Example 132] yielded an IC50 of 1 to 10 nM.

`C[C@H](CO)n1nnnc1-c1cccc(NC(=O)c2cc3c(cn2)CCN(Cc2ccccc2)C3)n1` [Example 133]: the IC50 fell in the range of 1 to 10 nM.

With `COCCN1CCc2cnc(C(=O)Nc3cccc(-c4nnnn4[C@H](C)CO)n3)cc2C1` [Example 134], the IC50 is 1 to 10 nM.

`CC(C)N1CCc2cnc(C(=O)Nc3cccc(-c4nnnn4[C@H](C)CO)n3)cc2C1` [Example 135] returned an IC50 of 10 to 100 nM.

On to `CCN1CCc2cnc(C(=O)Nc3cccc(-c4nnnn4[C@H](C)CO)n3)cc2C1` [Example 136], for which the IC50 fell in the range of 10 to 100 nM.

With `CC(C)n1nnnc1-c1cccc(NC(=O)c2cc3c(cn2)CCN(C(=O)N2CCS(=O)(=O)CC2)C3)n1` [Example 137], the IC50 fell in the range of 1 to 10 nM.

On to `COCCS(=O)(=O)N1CCc2cnc(C(=O)Nc3cccc(-c4nnnn4C(C)C)n3)cc2C1` [Example 138], for which the IC50 was in the range of 1 to 10 nM.
